Reference: publication PMC7712488 (Vaccines, 2020)

Tested on: DQ0602
Experiment: DQ0602 peptide competition binding assay (vs Bio-EBV epitope, DELFIA TRF)
Settings: Suppl Table 1, motif in Pandemrix; 40 μM competitor vs 1 μM Bio-EBV, 25 nM DQ0602, pH 4.6, 3 days 37 °C, duplicate; <25% strong, 25–50% weak binder
Method: The reaction was quenched by adding two volumes of neutralization buffer (100 mM Tris-HCl, pH = 8.6, 150 mM NaCl, 1% BSA, 0.5 Nonidet P-40 (IGEPAL CA-630, Sigma), 0.1% NaN3). Monoclonal anti-DQ (SPV-L3) antibodies (Cat# BNUM0200-50, Biotium, Fremont, CA, USA) (1:400 dilution in 100 mM carbonate-bicarbonate buffer, pH = 9.5) were coated onto a high binding 96-well plate (REF# 9018, Corning), and incubated with neutralized reaction for 1–2 h at room temperature (RT). After washing five times with 300 μL/well of wash buffer (phosphate-buffered saline (PBS), 0.05% Tween-20, pH = 7.4), 100 μL/well of Europium (Eu)-labelled streptavidin (Cat# 1244–360, PerkinElmer, Waltham, MA, USA) (1:1000 dilution in PBS, 1% BSA, pH = 7.4) was added and incubated for 1 h at RT. After washing 5 times again with 300 μL/well of wash buffer, DELFIA® time-resolved fluorescence (TRF) intensity was detected using a Tecan Infinite® M1000 after adding 100 μL/well of enhancement solution (Cat# 1244–105, PerkinElmer). Non-specific binding was removed through extensive wash with wash buffer.
A combination of in-vitro and in-silico methods was adopted to address this question. We synthesized 15 mer peptide stretches overlapping by 4mers using the most abundant viral proteins (HA, NA, NP, M1 & PB2) from reference strains (X179A and wild type pH1N1) as a template. […] In this way, a database of experimentally derived peptide binders from the abundant viral proteins was built. Next, we compared the mutated motifs (Table 3) from the vaccines to the reference motifs already tested for DQ0602 binding.

In order of rising “%DQ6-EBV Binding (PANDEMRIX motif)” value:
1. QNALNGNGDP[N > D]NMDKAVKLY  6.87%
2. RTTIMAAFNG[N > D]TEGRTSDMR  12.48%
3. QGRGVFELSD[E]KAASPIVPS  14.93%
4. NALNGNGDPN[N > D]MDKAVKLYR  27.47%
5. QVYSLIRPNE[N > D]PAHKSQLVW  35.94%
6. VGKEFNHLEK[R > I]IENLNKKVD  42.31%
7. NTSLPFQNIH[P > Q]ITIGKCPKY  42.35%
8. LEVLMEWLKT[R > I]PILSPLTKG  51.58%
9. DPNNMDKAVK[L > M]YRKLKREIT  71.82%
10. QRRRFVQNAL[N > D]GNGDPNNMD  77.89%
11. MASQGTKRSY[E > Q]QMETDGERQ  78.07%
12. NNAKEIGNGC[F > Y]EFYHKCDNT  84.06%
13. LQRRRFVQNA[L > P]NGNGDPNNM  88.31%

Same assay, conditions: Suppl Table 1, reference motif of X179A; 40 μM competitor vs 1 μM Bio-EBV, 25 nM DQ0602, pH 4.6, 3 days 37 °C, duplicate; <25% strong, 25–50% weak binder

In order of rising “%DQ6-EBV Binding (X179A motif)” value:
1. QNALNGNGDP[N]NMDKAVKLY  6.01%
2. QGRGVFELSD[E]KAASPIVPS  14.93%
3. NALNGNGDPN[N]MDKAVKLYR  32.79%
4. QVYSLIRPNE[N]PAHKSQLVW  48.19%
5. NTSLPFQNIH[P]ITIGKCPKY  56.53%
6. QRRRFVQNAL[N]GNGDPNNMD  66.28%
7. MASQGTKRSY[E]QMETDGERQ  67.56%
8. DPNNMDKAVK[L]YRKLKREIT  73.65%
9. NNAKEIGNGC[F]EFYHKCDNT  79.28%
10. VGKEFNHLEK[R]IENLNKKVD  80.71%
11. LQRRRFVQNA[L]NGNGDPNNM  83.1%
12. LEVLMEWLKT[R]PILSPLTKG  116.06%

Same assay, conditions: Suppl Table 1, wild type pH1N1 motif; 40 μM competitor vs 1 μM Bio-EBV, 25 nM DQ0602, pH 4.6, 3 days 37 °C, duplicate; <25% strong, 25–50% weak binder

In order of rising “%DQ6-EBV Binding (PH1N1 motif)” value:
1. NALNGNGDPN[N]MDRAVKLYK  21.69%
2. LEALMEWLKT[R]PILSPLTKG  31.61%
3. QVVSLMRPNE[N]PAHKSQLVW  31.89%
4. QGRGVFELSD[E]KATNPIVPS  39.96%
5. NTSLPFQNIH[P]ITIGKCPKY  56.53%
6. QRRRFVQNAL[N]GNGDPNNMD  66.28%
7. DPNNMDRAVK[L]YKKLKREIT  67.01%
8. MASQGTKRSY[E]QMETGGERQ  71.8%
9. NNAKEIGNGC[F]EFYHKCDNT  79.28%
10. VGKEFNHLEK[R]IENLNKKVD  80.71%
11. LQRRRFVQNA[L]NGNGDPNNM  83.1%
